The text below walks through data of patent publication EP0746567B1, “NOVEL OPIOID PEPTIDES FOR THE TREATMENT OF PAIN AND USE THEREOF” (AstraZeneca AB, priority 1994, dated 2002).

The subject of this experiment is hot plate response. The experiment can be described thus: Hot plate test (central analgesia). It is filed as in vivo. The note with it: mouse hot plate test, even at doses of 100mg/kg. From the text:
It was thought that non-polar peptides pass more easily into the central nervous system than polar peptides by traversing the blood-brain barrier. […] This test is standard and known to persons skilled in the art. The test detects chemicals that exert a centrally mediated analgesic response.
The term "ED50" as shown in table 1 for the PBQ writhing assays is defined as the dose of drug which induces a 50% reduction in the number of writhes observed compared to the control.
PBQ (phenylbenzoquinone) induced writhing in mice is an assessment of both central and peripheral analgesia. For experimental protocol see Sigmund et al., Proc. Soc. Exp. Biol. Med., 95, p. 729 (1957). Central analgesia was determined by the inhibition of a hot plate response in mice. For experimental protocol see G. Woolfe and A. Macdonald, J. Pharmacol. Exp. Ther., 80, p.300 (1944). Assays measuring opioid receptor binding affinities for µ and δ receptors as well as GPI and MVD assays were determined through experimental protocol set out in Schiller et al., Biophys. Res. Commun., 85, p.1322 (1975). […]
The mice were individually evaluated for reaction time on the hot plate. […]
For each time reading, the average reaction time of the control group was multiplied by 1.5. […] The number of analgesic mice in a group determined the analgesic percentage of the compound for this reading.

Non-standard residues stand in square brackets, D forms with d. Residues, ends and D or L forms follow the SMILES beside them.

For the molecule `C[C@@H](NC(=O)[C@@H](N)Cc1ccc(O)cc1)C(=O)N[C@@H](Cc1ccccc1)C(=O)N[C@@H](Cc1ccccc1)C(N)=O` [TAPP, H-Tyr-D-Ala-Phe-Phe-NH2] (H-Y[dA]FF-NH2), the analgesic effect entry is “lack of analgesic effect”.
